“Also recorded” adds a separate entry of the source.
Assays:
[1] = system: Bone Marrow Derived Macrophage (BMDM); experiment: NC on TNFα production by BMDMs in response to TLR agonists (Example 7); type: cell-based, mouse
Procedure: FIG. 32. NC Reduces TNFα Response to Toll 3 Agonist. Macrophages were cultured at a uniform density and allowed to adhere (in the case of BMDMs) or differentiate with PMA (in the case of THP-1s). macrophages were then incubated overnight in NC at a concentration of 50 uM at 37° C. The following day, the BMDMs were stimulated with P(I:C) at 50 ug/mL, 100 ug/mL, or 200 ug/mL for four hours and the THP-1s were stimulated at 200 […]. Supernatants were collected and TNFα concentrations were determined via ELISA.
FIG. 33. TNFα production from Bone Marrow Derived Macrophage (BMDM) stimulation. BMDMs were cultured in DMEM supplemented with Macrophage Colony Stimulating Factor (M-CSF) at 10 ng/ml. The macrophages were then incubated overnight in NC at a concentration of 50 uM at 37° C. The following day they were stimulated with LPS at 1 ng/ml, 10 ng/ml for four hours. Supernatants were collected and TNFα concentrations were determined via ELISA.
Bone marrow derived macrophages were collected from adult mice (6-8 weeks old). Femurs were obtained and cut with scissors. The connecting muscles were removed and the bones were flushed with PBS. PBS was collected and cells were counted and adjusted to the desired concentrations. […] After 7 days the cells were ready for use. […]
Once ready, macrophages were then incubated with NC at a concentration of 50 uM overnight. […] Samples were treated for 4 hours and then Supernatant was then collected and the concentration of TNFα was then determined via the commercially available ELISA MAX Deluxe kit (Biolegend), with measurements reported in pg/mL.
To investigate the effects NC, macrophages were stimulated in vitro with various TLR agonists, and the production of cytokines was measured via ELISA. […] After 4 hours, supernatant was collected and the concentration of TNFα was determined via ELISA.
Further investigation of NC's impact on TLR signaling involved treating BMDMs with the TLR 4 agonist LPS. […] After 4 hours supernatant was collected and concentration of TNFα was measured via ELISA. […]

macrophages = experiment: NC on other TLR pathways, macrophages (Example 7); type: cell-based; conditions: PAM3CSK4, Flagellin, Imiquimod, ODN2006; various concentrations
Procedure: Once ready, macrophages were then incubated with NC at a concentration of 50 uM overnight. The following day they were treated with P(I:C) at 50 ug/mL, 100 ug/mL, or 200 ug/mL, with LPS at 1 ng/ml or 10 ng/ml, or FSL at a concentration of 20 ng/ml or 50 ng/mL. Samples were treated for 4 hours and then Supernatant was then collected and the concentration of TNFα was then determined via the commercially available ELISA MAX Deluxe kit (Biolegend), with measurements reported in pg/mL.
Further investigation of NC's impact on TLR signaling involved treating BMDMs with the TLR 4 agonist LPS. Following overnight treatment with NC cells were treated with LPS at a concentration of 1 ng/ml and 10 ng/ml. After 4 hours supernatant was collected and concentration of TNFα was measured via ELISA. […] Additionally, we explored NCs effects on other TLR agonists. […] We investigated NCs effects on various other TLR pathways including: ½ (PAM3CSK4), TLR 5 (Flagellin), TLR 7 (Imiquimod), and TLR 9 (ODN2006).

[2] = system: IC-21 murine peritoneal macrophages; experiment: Toxicity assay, Cell Counting Kit-8 viability; type: cell-based, mouse; conditions: 37° C. two days, CCK-8
Procedure: FIG. 10. […] IC-21 murine peritoneal macrophages were seeded at a density of 2.0×10^4 per well in a 96-well plate. Differing concentrations of compound JE ranging from […] were diluted in DMSO and added to the appropriate wells. Cells were incubated at 37° C. for 48 hours. After the incubation period, Cell Counting Kit-8 (Sigma-Aldrich) was used for quantification of viable cells. CCK-8 solution was added to each well and the plate was incubated at 37° C. for two hours. Levels of water-soluble tetrazolium salt reduced to formazan were then measured at a wavelength of 450 nm. Cell viability was found as a percentage by dividing each absorbance value by the negative control.
To test if JE has any toxicity, we first incubated murine macrophages with JE at different concentrations at 37° C. for two days, and determined viability of the cells. […] Further we injected the JE at 50 μM twice daily via I.P. for 3 or 5 days and then determined ALT levels in sera and examined the morphology in key organs, liver, kidney, spleen, intestines etc.

[3] = system: human corneal epithelial cells (HCECs); experiment: JE on TLR5 agonist (flagellin)-induced IL-6 in HCECs; type: cell-based; conditions: JE 50 μM overnight, flagellin 6 or 24 hours, ELISA
Procedure: FIG. 11. Probiotic bacteria metabolite JE inhibits TLR5 agonist-induced IL-6 in HCECs. HCECs were pretreated with 50 µM JE overnight and then stimulated with 0.1 μg/ml flagellin for the indicated time. The effect of TLR5 agonist (flagellin) on IL-6 secretion were measured in cell culture supernatants by ELISA. *, P<0.05.
To test if JE could be used as a therapeutic agent, we tested its effects on a dry eye disease model. Dry eye disease is characterized by inflammation in ocular surface. First, we tested if JE can inhibit production of pro-inflammatory cytokine IL-6 by corneal epithelial cells stimulated by TLR5 agonist flagellin. Thus, SV 40 immortalized human corneal epithelial cells (HCECs) were with JE at 50 μM overnight and they are subsequently exposed to TLR5 agonists (flagellin isolated from Pseudomonas aeruginosa) for 6 or 24 hours. The cell culture supernatants were collected and used for ELISA to determine the concentrations of IL-6. […] Probiotic bacteria-derived metabolite (JE) suppressed the TLR5 agonist-induced IL-6 production (FIG. 11).

SMILES	production and secretion of TNFα ([1]; NC 50 μM overnight, Poly (I:C) 50, 100, 200 μg/ml, 4 hours)	production of TNFα ([1]; NC alone, 50 μM overnight)	cytokine (TNFα) production in response to TLR 4 agonist LPS ([1]; NC overnight, LPS 1 ng/ml and 10 ng/ml, 4 hours)	cytokine production, other TLR pathways (macrophages)	viability of the cells ([2]; JE 50 μM or below)	viability of the cells ([2]; JE >100 μM)	TLR5 agonist-induced IL-6 production [3]
CCCCCCCCCCCCCCCC(=O)N[C@@H](C(=O)O)[C@H](C)O [NC, N-Palmitoyl-D-Threonine]	reduced	not found to increase	able to reduce	did not exhibit any significant inhibitory effects	–	–	–
CC(=O)O[C@@H]1CC[C@H]2[C@H]3CC[C@H]4CC(F)(F)CC[C@]4(C)[C@H]3CC[C@]12C [JE, 3,3-Difluoro-5-alpha-androstan-17-beta-yl acetate]	–	–	–	–	high viability; also recorded: did not show significant reduction	reduced the viability	suppressed

From patent US20250000874A1, “BACTERIAL METABOLITES AND THEIR USE IN REDUCING INFLAMMATION” (LOYOLA UNIVERSITY OF CHICAGO, priority 2023, published 2025)
